The record followed here is ChEMBL document CHEMBL5346870, “Discovery of novel 5-methoxybenzothiophene hydrazides as metabolically stable Clk1 inhibitors with high potency and unprecedented Clk1 isoenzyme selectivity” (Eur J Med Chem, 2023).

In general, IC50 refers to the concentration that gives 50% inhibition. In general, GI50 refers to the concentration at which growth is held to half of that of the control. The half-life is how long it takes for the measured level to halve.

Series [1] has as its target T1, Dual specificity protein kinase CLK1 (Homo sapiens, UniProt P49759). Particulars: dose 100.0 nM, time 15.0 min.
Target sequence in this assay (P49759 whole entry, looked up): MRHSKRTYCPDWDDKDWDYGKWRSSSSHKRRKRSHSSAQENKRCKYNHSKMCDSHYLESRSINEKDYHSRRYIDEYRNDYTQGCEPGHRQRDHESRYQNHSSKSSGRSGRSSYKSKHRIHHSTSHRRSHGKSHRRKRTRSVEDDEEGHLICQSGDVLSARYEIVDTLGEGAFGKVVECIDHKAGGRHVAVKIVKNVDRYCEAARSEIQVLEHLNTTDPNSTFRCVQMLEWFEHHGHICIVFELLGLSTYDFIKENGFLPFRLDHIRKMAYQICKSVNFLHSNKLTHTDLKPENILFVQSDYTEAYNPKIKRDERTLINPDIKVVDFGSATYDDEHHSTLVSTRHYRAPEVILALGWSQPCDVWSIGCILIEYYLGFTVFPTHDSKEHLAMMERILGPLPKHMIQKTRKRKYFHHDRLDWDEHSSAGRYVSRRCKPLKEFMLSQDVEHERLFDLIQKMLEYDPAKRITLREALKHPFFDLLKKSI
The target in series [2] is T1, Dual specificity protein kinase CLK1. Kind of series: Inhibition of human CLK1 using GRSRSRSRSRSRSRS as substrate incubated for 15 mins in presence of ATP by gamma32P-ATP based analysis.
Target sequence in this assay (P49759 whole entry): as the sequence (P49759 whole entry, looked up) above
Series [3] deals with T-24. Kind of series: Antiproliferative activity against human T24 cells assessed as cell growth inhibition incubated for 3 days by MTT assay. Format: functional. The conditions noted are these: T-24, 72 h, time 3 day. In general terms: Formazan colour is commonly taken as a measure of viable cells.
In a further series the test system is NHDF. Kind of series: Cytotoxicity against HDF cells assessed as inhibition of cell growth at 15 uM incubated for 2 days by WST-1 analysis. It is filed as toxicity, cell-based. The conditions noted are these: human, 48 h, time 2 day.
A short description of series [4]: Selectivity index, ratio of IC50 for inhibition of CLK2 (unknown origin) to IC50 for inhibition of CLK1 (unknown origin).
Series [5] can be described thus: Selectivity index, ratio of inhibition of DYRK1A (unknown origin) to inhibition of CLK1 (unknown origin).
Series [6] is described as follows: Metabolic stability in pooled human liver S9 fraction assessed as half life at 0.3 uM incubated for 120 mins in presence of NADPH regenerating system by LC-MS/MS analysis. Format: ADME, subcellular.
Series [7] in a line: Metabolic stability in human liver microsomes assessed as half life. Format: ADME, Microsome. A general note: Liver microsomes are vesicles of endoplasmic reticulum, rich in cytochrome P450 enzymes.
Series [8] addresses Dual specificity protein kinase CLK4 (Homo sapiens, UniProt Q9HAZ1). Kind of series: Inhibition of CLK4 (unknown origin) in presence of ATP.
In series [9] the target is Dual specificity tyrosine-phosphorylation-regulated kinase 1A (Homo sapiens, UniProt Q13627). Nature of the series: Inhibition of DYRK1A (unknown origin) in presence of ATP.
The nature of series [10]: Cytotoxicity against HDF cells assessed as cell growth inhibition at 15 uM incubated for 2 days by WST-1 analysis relative to control. It is filed as toxicity, cell-based. The conditions noted are these: human, HDF cells (NHDF, normal human dermal fibroblasts), time 2 day, read-out: GI.
The test system of series [11] is T-24. Kind of series: Antiproliferative activity against human T24 cells assessed as cell growth inhibition. It is filed as functional.

A value given as a limit tells only on which side of the number the result lay.

Sequence of Dual specificity protein kinase CLK4 (Q9HAZ1 whole entry): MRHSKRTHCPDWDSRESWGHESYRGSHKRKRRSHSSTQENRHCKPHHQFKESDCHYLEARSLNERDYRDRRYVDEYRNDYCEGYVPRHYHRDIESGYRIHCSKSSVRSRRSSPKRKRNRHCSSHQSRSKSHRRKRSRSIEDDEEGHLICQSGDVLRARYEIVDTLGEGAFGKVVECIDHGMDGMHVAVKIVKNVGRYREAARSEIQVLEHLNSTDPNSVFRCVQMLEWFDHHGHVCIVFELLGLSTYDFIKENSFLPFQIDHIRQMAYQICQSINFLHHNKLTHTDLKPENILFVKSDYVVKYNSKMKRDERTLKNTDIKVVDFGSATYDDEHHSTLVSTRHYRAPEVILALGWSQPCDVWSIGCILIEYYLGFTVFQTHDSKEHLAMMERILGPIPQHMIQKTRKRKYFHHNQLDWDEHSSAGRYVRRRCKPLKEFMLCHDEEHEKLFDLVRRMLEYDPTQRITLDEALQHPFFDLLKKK

For the compound `COc1ccc2sc(C(=O)NNc3ccccc3)cc2c1`, in [1], the inhibition is 38.1%. For `COc1ccc2sc(C(=O)NNc3ccc(C#N)cc3)cc2c1`, the IC50 in series [2] is > 0.1 µM. For the same compound, the GI50 in the series with T-24 [3] is > 15 µM. For the same compound, the Activity entry in the series with NHDF is on record as “Non-Toxic”. This compound also came in with an inhibition in series [1] of 18.4%. The compound `COc1ccc2sc(C(=O)NNc3ccc(Cl)cc3)cc2c1` had an inhibition in series [1] of 12.8%. As to `COc1ccc2sc(C(=O)NNc3cccc(F)c3)cc2c1`, the IC50 in series [2] was determined as 0.0665 µM. The inhibition in [1] was found to be 70.5%. For `COc1ccc2sc(C(=O)NNc3ccc(C)cc3C)cc2c1`, in series [1], the inhibition was found to be 0%. Same read-out and setting: under `COc1ccc2sc(C(=O)NNc3ccc(Br)cc3)cc2c1` stands 21.3%. Consider `CC(C)(C)c1ccc(C(=O)Nc2cn3cc(-c4cn[nH]c4)ccc3n2)cn1`, for which, in series [4], the Ratio IC50 was found to be 2.2. Regarding `COc1ccc2sc(C(=O)N(C)Nc3cccc(Cl)c3)cc2c1`, in the series on T-24 [3], the concentration for 50% growth inhibition (GI50) was > 15 µM. The Activity entry in the series with NHDF is “Non-Toxic”. For the compound `COc1ccc2sc(C(=O)N(C)N(C)c3cccc(N)c3)cc2c1`, the half-inhibitory concentration (IC50) in [2] was 0.0974 µM. Further, the inhibition in series [1] was 51.2%. Regarding `COc1ccc2sc(C(=O)N(C)Cc3cccc(F)c3)cc2c1`, the Selectivity Index in series [5] worked out at 48.6. Further, in [6], the half-life at 0.3 µM is 17.2 min. In series [7], the half-life was 10 min. On to `COc1ccc2sc(C(=O)N(C)N(C)c3cccc(Br)n3)cc2c1`, for which, in series [2], the IC50 was 0.0129 µM. In addition, the inhibition in series [1] was found to be 77.2%.

`COc1ccc2sc(C(=O)NNc3ccccc3Br)cc2c1` came in with an inhibition in series [1] of 6.2%. With `COc1ccc2sc(C(=O)NNc3cc(F)cc(F)c3)cc2c1`, the IC50 in series [8] worked out at 0.0211 µM; in series [9], 0.201 µM. The GI50 in the series with T-24 [3] was 8.9 µM. Besides, in the series on NHDF, the Activity entry is “Non-Toxic”. Further, in [6], the half-life at 0.3 µM is 56.9 min.

`COc1ccc2sc(C(=O)NNc3ccc(F)cc3)cc2c1` registered an inhibition in series [1] of 5%. As to `COc1ccc2sc(C(=O)NNc3cccc(C#N)c3)cc2c1`, in series [2], the IC50 amounted to 0.0054 µM. Moreover, the GI50 in the series on T-24 [3] turned out to be 10 µM. Further, in the series with NHDF, the Activity entry is recorded as “Non-Toxic”. Besides, in series [1], the inhibition stood at 73.1%. For `COc1ccc2sc(C(=O)NNc3ccc(C)c(Cl)c3)cc2c1`, the inhibition in series [1] stood at 25.9%. With `COc1ccc2sc(C(=O)N(C)N(C)c3cc(Cl)cc(Cl)c3)cc2c1`, the IC50 in [2] worked out at 0.0635 µM. Besides, the inhibition in series [1] stood at 66.3%.

Consider `COc1ccc2sc(C(=O)NNc3cccc(N)c3)cc2c1`, for which the inhibition in series [1] worked out at 49%.

The compound `COc1ccc2sc(C(=O)N(C)N(C)c3cccc([N+](=O)[O-])c3)cc2c1` had an inhibition in series [1] of 47.8%.

For `COc1ccc2sc(C(=O)NNc3ccc([N+](=O)[O-])cc3)cc2c1`, the inhibition in [1] was found to be 7.2%.

Take `COc1ccc2sc(C(=O)NNc3cccc(Br)n3)cc2c1`: the GI50 with T-24 [3] came to 11.4 µM. `COc1ccc2sc(C(=O)NNc3ccc(C(C)C)cc3)cc2c1`: the inhibition in series [1] is 3.8%.

On to `COc1ccc2sc(C(=O)N(C)N(C)c3cccc(C#N)c3)cc2c1`, for which the IC50 in series [2] is 0.0321 µM. The inhibition in series [1] worked out at 62.7%. Regarding `COc1ccc2sc(C(=O)NNc3ccc(C(F)(F)F)cc3)cc2c1`, in [1], the inhibition came to 0%.

Turning to `COc1ccc2sc(C(=O)NNc3cccc(C(F)(F)F)c3)cc2c1`, the IC50 in series [2] is 0.073 µM. The inhibition in [1] is 63%. `COc1ccc2sc(C(=O)NNc3ccc(F)c(F)c3)cc2c1` gave an inhibition in [1] of 17.7%. `COc1ccc2sc(C(=O)NNc3ccc(I)cc3)cc2c1` had an inhibition in series [1] of 16.9%. For the compound `COc1ccc2sc(C(=O)NNc3cc(Cl)cc(Cl)c3)cc2c1`, the IC50 was 0.0134 µM in [8] and 0.191 µM in [9]. Besides, the GI50 with T-24 [3] turned out to be 3.4 µM. In series [6], the half-life at 0.3 µM amounted to 385 min. As to `COc1ccc2sc(C(=O)N(C)N(C)c3cc(F)cc(F)c3)cc2c1`, the IC50 in series [2] worked out at 0.0245 µM. In addition, the GI50 in the series with T-24 [3] was > 15 µM. Moreover, the inhibition at 48 h, 15 µM in series [10] was determined as 20.8%. The compound also had an inhibition in [1] of 85%. In [1], `COc1ccc2sc(C(=O)NNc3ncccc3Cl)cc2c1` registered an inhibition of 0%.

On to `COc1ccc2sc(C(=O)N(C)N(C)c3cccc(Br)c3)cc2c1`, for which the IC50 in series [2] stood at 0.0738 µM. The compound also displayed an inhibition in series [1] of 68.1%.

With `COc1ccc2sc(C(=O)NC(=O)c3cc(Cl)ccc3OC)cc2c1`, the Selectivity Index in series [5] turned out to be 60. Besides, the half-life at 0.3 µM in series [6] was 10.2 min. The half-life in series [7] came out at 10 min.

As to `COc1ccc2sc(C(=O)NNc3ccccn3)cc2c1`, in series [1], the inhibition came to 28.9%. In series [1], `COc1ccc2sc(C(=O)NNc3nc(OC)ncc3F)cc2c1` showed an inhibition of 0%. Take `CNc1ncc2cc3cnccc3c([N+](=O)[O-])c2n1`: the Selectivity Index in series [5] was 34. `COc1ccc2sc(C(=O)N(C)Cc3cc(F)cc(F)c3)cc2c1`: the GI50 in the series with T-24 [11] came out at 0.43 µM; in the series with T-24 [3], 1.78 µM. Also, the inhibition at 48 h, 15 µM in series [10] is 9.16%. Further, in series [6], the half-life at 0.3 µM turned out to be 9.9 min. Also, the half-life in series [7] was found to be 10 min. In turn, `COc1ccc2sc(C(=O)NNc3ccccc3F)cc2c1` displayed an inhibition in series [1] of 18.6%. The same measure, in the same setting: the value for `COc1ccc2sc(C(=O)NNc3ccc(F)c(Cl)c3)cc2c1` was 27.9%. As for `COc1cccc(NNC(=O)c2cc3cc(OC)ccc3s2)c1`, the IC50 in series [2] worked out at 0.0037 µM. Also, the GI50 in the series on T-24 [3] was > 15 µM. The Activity entry in the series with NHDF was “Non-Toxic”. In addition, in [1], the inhibition worked out at 86.8%. In turn, `COc1ccc2sc(C(=O)NNc3ccc(Cl)cc3Cl)cc2c1` registered an inhibition in series [1] of 30.4%. For the compound `COc1ccc2sc(C(=O)NNc3c(Cl)cccc3Cl)cc2c1`, the inhibition in [1] worked out at 0%. For the compound `COc1ccc2sc(C(=O)NNc3cccc([N+](=O)[O-])c3)cc2c1`, the IC50 in [2] was found to be 0.0856 µM. Further, in [1], the inhibition came out at 68.4%. Compound `COc1ccc2sc(C(=O)NNc3cccc(C)c3)cc2c1` registered an inhibition in series [1] of 29.9%.

For `COc1ccc2sc(C(=O)NNc3cc(C(F)(F)F)cc(C(F)(F)F)c3)cc2c1`, the inhibition in series [1] was 22.3%. Still for that read-out and setting: the value for `COc1ccc2sc(C(=O)NNc3ccc(F)cc3F)cc2c1` was 4.1%. Take `COc1ccc2sc(C(=O)NNc3cccc(Br)c3)cc2c1`: in series [2], the IC50 was found to be 0.0377 µM. In [1], this compound returned an inhibition of 84.6%. Consider `Cn1cc(-c2ccc3occ(-c4cccc(-c5ccncc5)c4)c3n2)cn1`, for which the Ratio IC50 in [4] is 2.5. In addition, the Selectivity Index in [5] was 26.6.

`COc1ccc2sc(C(=O)NNc3ccccc3Cl)cc2c1` displayed an inhibition in series [1] of 29.5%. Take `C[C@@H](c1ccc(F)cc1)n1nnc2cnc3ccc(-c4ccc5ocnc5c4)cc3c21`: the Selectivity Index in [5] was 69.
